Test results taken from US20120258976A1, “CRYSTALLINE PYRROLO[2,3-D]PYRIMIDINE COMPOUNDS” (Pfizer Inc., priority 2011, published 2012).

Assay: Tofacitinib stability in PEG-based ointment formulations after storage at 40° C.
Format: physicochemical
Excerpt: Topical formulations contain 3-((3R,4R)-4-methyl-3-[methyl-(7H-pyrrolo[2,3-d]pyrimidin-4-yl)amino]-piperidin-1-yl)-3-oxopropionitrile in therapeutically effective amounts that can be given in daily or twice daily doses to patients in need. These amounts range from about 0.1% to about 5.0% (w/v), more preferably, from about 0.1% to about 3.0%, more preferably still, from about 0.5% to about 2.3%, and, most preferably, about 2.0% (w/v). Among other excipients which enhance the stability of these formulations include aldehyde scavengers, such as glycerine and propylene glycol, and antioxidants, such as butyl hydroxyanisole (BHA), butyl hydroxytoluene (BHT), propyl gallate, ascorbic acid (Vitamin C), polyphenols, tocopherols (Vitamin E), and their derivatives. Preferably, PEG-based ointment formulations containing at least 30% polyethylene glycol, tofacifinib and one or more penetration enhancers and additional pharmaceutically acceptable excipients forming a stable formulation such that the level of total degradants is no more than 7% when the product is stored at 40° C. for 4 weeks. More preferably, addition of aldehyde scavengers and antioxidants into formulations Ointment 1 (A) and Ointment 2 (C) stabilized the polyethylene glycol containing ointment formulations such that the level of total degradants is no more than 5% when the product is stored at 40° C. for 4 weeks.

Stability of tofacitinib in the presence of polyethylene glycol (PEG): poor stability
Structure (SMILES): C[C@@H]1CCN(C(=O)CC#N)C[C@@H]1N(C)c1ncnc2[nH]ccc12 [tofacitinib, 3-((3R,4R)-4-Methyl-3-[methyl-(7H-pyrrolo[2,3-d]pyrimidin-4-yl)-amino]-piperidin-1-yl)-3-oxopropionitrile]
